Counter-ions that a name gives are not always drawn.
target: T1, dopamine D2 receptor (Rattus norvegicus, UniProt P61169); assay: Dopamine D2 receptor affinity, 3H-quinpirole binding in homogenized rat striatal brain tissue
T1 construct: from tissue; host or cells: rat striatal brain tissue homogenate
Experimental: Affinity for the dopamine D2 receptor was established by a modification of the standard experimental test procedure of Seemen and Schaus, European Journal of Pharmacology 203: 105-109, 1991, wherein homogenized rat striatal brain tissue is incubated with ^3H-quinpirole and various concentrations of test compound, filtered and washed and counted in a Betaplate scintillation counter.

T1 sequence (P61169 whole entry): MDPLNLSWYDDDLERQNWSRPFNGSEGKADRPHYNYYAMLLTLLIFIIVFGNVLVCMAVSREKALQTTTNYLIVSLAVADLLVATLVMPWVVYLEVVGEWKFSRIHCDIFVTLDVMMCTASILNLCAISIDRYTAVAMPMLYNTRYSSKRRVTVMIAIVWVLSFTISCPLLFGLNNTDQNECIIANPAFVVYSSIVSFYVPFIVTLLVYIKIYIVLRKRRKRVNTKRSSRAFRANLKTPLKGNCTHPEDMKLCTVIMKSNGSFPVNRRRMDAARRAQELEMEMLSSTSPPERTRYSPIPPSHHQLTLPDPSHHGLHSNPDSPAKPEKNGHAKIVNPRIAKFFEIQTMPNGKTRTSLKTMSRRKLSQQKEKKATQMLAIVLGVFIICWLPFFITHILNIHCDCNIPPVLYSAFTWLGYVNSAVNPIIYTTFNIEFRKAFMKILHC

Compound	IC50 [nM]
c1cc2[nH]ncc2c2c1OCC(CNCC13CC4CC(CC(C4)C1)C3)O2 (centres unmarked) [Example 3, Adamantan-1-ylmethyl-(-7,8-dihydro-3H-6,9-dioxa-2,3-diaza-cyclopenta[a]naphthalen-8-ylmethyl)-amine]	0.1
C1=C(c2c[nH]c3ccccc23)CCN(CC2COc3ccc4[nH]ncc4c3O2)C1 (centres unmarked) [Example 6, 8-[4-(1H-indol-3-yl)-3,6-dihydro-2H-pyridin-1-ylmethyl]-7,8-dihydro-3H-6,9-dioxa-2,3-diaza-cyclopenta[a]naphthalene]	4.5
c1ccc(CCCCNC[C@H]2COc3ccc4[nH]ncc4c3O2)cc1 [Example 2]	0.29
c1ccc(CNC[C@H]2COc3ccc4[nH]ncc4c3O2)cc1 [Example 1]	0.45

Second part, the compound after the results:

IC50 [nM]	Compound
1.1	c1ccc2c(c1)CCN(CC1COc3ccc4[nH]ncc4c3O1)C2 (centres unmarked) [Example 5, 8-(3,4-Dihydro-1H-isoquinolin-2-ylmethyl)-7,8-dihydro-3H-6,9-dioxa-2,3-diaza-cyclopenta[a]naphthalene]
3.4	Fc1ccc2[nH]cc(CC3CCN(CC4COc5ccc6[nH]ncc6c5O4)CC3)c2c1 (centres unmarked) [Example 7, 8-[4-(5-Fluoro-1H-indol-3-ylmethyl)-piperidin-1-ylmethyl]-7,8-dihydro-3H-6,9-dioxa-2,3-diaza-cyclopenta[a]naphthalene]
0.17	c1ccc2c(CCCNCC3COc4ccc5[nH]ncc5c4O3)c[nH]c2c1 (centres unmarked) [Example 4, (7,8-Dihydro-3H-6,9-dioxa-2,3-diaza-cyclopenta[a]naphthalen-8-ylmethyl)-[3-(1H-indol-3-yl)-propyl]-amine]

system: not given; assay: not given

Compound	melting point [°C]
c1ccc(CNC[C@H]2COc3ccc4[nH]ncc4c3O2)cc1 (as salt: fumarate) (hydrate or solvate) [Example 1]	194 to 195.7
C1=C(c2c[nH]c3ccccc23)CCN(CC2COc3ccc4[nH]ncc4c3O2)C1 (centres unmarked) (as salt: hydrochloride) [Example 6, 8-[4-(1H-indol-3-yl)-3,6-dihydro-2H-pyridin-1-ylmethyl]-7,8-dihydro-3H-6,9-dioxa-2,3-diaza-cyclopenta[a]naphthalene]	190
c1ccc(CCCCNC[C@H]2COc3ccc4[nH]ncc4c3O2)cc1 (as salt: hydrochloride) (hydrate or solvate) [Example 2]	104

More lines, now with the values ahead:

melting point [°C]	Compound
165	Fc1ccc2[nH]cc(CC3CCN(CC4COc5ccc6[nH]ncc6c5O4)CC3)c2c1 (centres unmarked) (as salt: hydrochloride) [Example 7, 8-[4-(5-Fluoro-1H-indol-3-ylmethyl)-piperidin-1-ylmethyl]-7,8-dihydro-3H-6,9-dioxa-2,3-diaza-cyclopenta[a]naphthalene]
170 to 172	c1ccc2c(c1)CCN(CC1COc3ccc4[nH]ncc4c3O1)C2 (centres unmarked) (as salt: hydrochloride) [Example 5, 8-(3,4-Dihydro-1H-isoquinolin-2-ylmethyl)-7,8-dihydro-3H-6,9-dioxa-2,3-diaza-cyclopenta[a]naphthalene]
> 300	c1cc2[nH]ncc2c2c1OCC(CNCC13CC4CC(CC(C4)C1)C3)O2 (centres unmarked) (as salt: hydrochloride) [Example 3, Adamantan-1-ylmethyl-(-7,8-dihydro-3H-6,9-dioxa-2,3-diaza-cyclopenta[a]naphthalen-8-ylmethyl)-amine]
138 to 142	c1ccc2c(CCCNCC3COc4ccc5[nH]ncc5c4O3)c[nH]c2c1 (centres unmarked) (as salt: oxalate) [Example 4, (7,8-Dihydro-3H-6,9-dioxa-2,3-diaza-cyclopenta[a]naphthalen-8-ylmethyl)-[3-(1H-indol-3-yl)-propyl]-amine]

From patent US6800641B2, “Antipsychotic aminomethyl derivatives of 7,8-dihydro-3H-6,9-dioxa-2,3-diaza-cyclopenta[a]naphthalene” (Wyeth, priority 2001, dated 2004)
